Where “and” joins values, the source holds several entries; their conditions need not be identical. Identical values can stand only once. Calls of active or inactive are those of the source.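 The calls were made as follows: active = compounds giving half or more protection of infected cells from virus-caused growth loss, again on retest; inactive = the rest.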 Where a SMILES comes first, the peptide text is derived from it.

The results in this text go back to PubChem BioAssay AID179 (DTP/NCI, 2004).

In the assay the test system is CEM cells HIV-1 protection, formazan growth assay. In words: NCI AIDS Antiviral Assay. The note with it: for IC50: measured here: growth of uninfected CEM cells. A digest of the protocol:
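Human CEM cells, uninfected and HIV-1-infected, received five drug concentrations, and growth was read by soluble formazan assay. Compounds giving at least 50% protection were retested; reproducible 100% protection defined confirmed active.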

As to `CC(=O)OCCn1c([N+](=O)[O-])cnc1/C=[N+](/[O-])CCO`, the result was inactive.
For the compound `Cc1cc(C)c2cnnn2n1`, the EC50 is above 1700 µM and the IC50 is above 1700 µM.
In the case of `NC(=O)/C(=N\NC(=O)C[n+]1ccccc1)C1NC(=O)NC1=O` (stereo unspecified), the EC50 was above 148 µM and the half-maximal inhibitory concentration (IC50) was above 148 µM.
Turning to `N/C(=N\N=C\c1cccc2ccccc12)N/N=C/c1cccc2ccccc12`, the EC50 is above 200 µM and the IC50 is 9.12 µM.
In the case of `CCOC(=O)C(NC(=O)c1ccccc1)[CH](c1ccccc1)[Sn]([c]1ccccc1)([c]1ccccc1)[c]1ccccc1` (stereo unspecified), the EC50 is above 200 µM and the IC50 was 20.4 µM.
For `O=C(/C=C/c1cc(O)ccc1O)OCCc1ccccc1`, in that order: above 45.7 µM and 6.17 µM.
For the compound `COC(=O)/C(=C/c1c[nH]c2ccccc12)NC=O`, the EC50 is above 200 µM and the IC50 is above 200 µM.
Consider `COc1ccc2[nH]c3c(cnn4cnnc34)c2c1`, for which the outcome was inactive.
Take `CC(=O)CC(C)(C)S(=O)(=O)O`: the EC50 is above 200 µM and the IC50 is above 200 µM.
Take `N#C/C(C(=O)Nc1ccccc1)=C(/N)N1CCCCC1`: the EC50 was above 200 µM and the IC50 is above 200 µM.
Take `CC1COC(C)(C)P(c2ccccc2)C1` (stereo unspecified): the EC50 is above 1120 µM and the concentration for half-maximal inhibition (IC50) is above 1120 µM.
As to `COc1ccc(C2C(Cl)C(=O)N2NC(=O)c2ccc(NC(C)=O)cc2)cc1` (stereo unspecified), the EC50 is above 200 µM and the IC50 is above 200 µM.
On to `c1ccc2sc(-c3c4ccccc4cc4c3ccc3ccccc34)cc2c1`, for which the EC50 is above 200 µM and the IC50 was above 200 µM.
Consider `CC1(C)N=C(/C(Cl)=[N+](/[O-])C(=O)c2ccc(Cl)cc2)C(C)(C)N1O`, for which the EC50 is above 100 µM and the IC50 is 8.91 µM.
For `CC(=O)O[C@]1(C)OC(=O)[C@@H](C)N1[N+](=O)[O-]`, the result was inactive.
Consider `Cc1nc(NC(=S)NC(=O)c2ccc(Cl)c(Cl)c2)sc1C(=O)/C=C/c1ccccc1[N+](=O)[O-]`, for which the EC50 is above 19.1 µM and the IC50 was above 19.1 µM.
Regarding `O=C(c1ccc(Cl)cc1)N(C(=S)N1CCN(c2ccccn2)CC1)c1ccccc1`, the EC50 was above 30.9 µM and the IC50 is above 30.9 µM.
As for `CC1CC(=O)N(N(C)C)C(C#N)(C#N)C1(C#N)C#N` (stereo unspecified), the EC50 is above 200 µM and the IC50 was determined as 3.16 µM.
Consider `Cc1ccc(S(=O)(=O)N/N=C2/CC3CCC2C3)cc1` (stereo unspecified), for which the EC50 was above 200 µM and the IC50 was above 200 µM.
Take `CC(C)C1OC(N)=C(C#N)C1(C#N)C#N` (stereo unspecified): the EC50 was above 200 µM and the IC50 is 7.41 µM.
For the compound `C/C(=C\c1ccc(N(C)C)cc1)C(=O)O`, the EC50 is above 66.1 µM and the 50% inhibitory concentration (IC50) is above 66.1 µM.
For `CC1(C)CC[C@]2(C(=O)O)C(O)CC3(C)C(=CCC4[C@@]5(C)CC[C@H](OS(=O)(=O)O)C(C)(C)C5CC[C@]43C)[C@@H]2C1` (stereo partly specified), the EC50 is above 219 µM and the IC50 was above 219 µM.
For the compound `NC(=O)NNC(O)(C(F)(F)F)C(F)(F)F`, the EC50 is above 200 µM and the IC50 was above 200 µM.
With `CC(C)CCn1nc(N)c2nc3ccccc3nc21`, the EC50 is above 200 µM and the IC50 is 112 µM.
For `O=C1NC(=O)C(CCC(=O)c2cccc3ccccc23)C(=O)N1`, the EC50 was above 60.3 µM and the IC50 is above 60.3 µM.
As for `COc1ccc2c(c1)C(=O)CC=C(C(=O)O)N2`, the EC50 was above 200 µM and the IC50 was above 200 µM.
For the compound `CN(c1ccccc1)S(=O)(=O)c1cccc([N+](=O)[O-])c1`, the EC50 is 50.1 µM and the IC50 was 105 µM.
For `CC(C#N)N(CCc1ccccc1)C(=O)c1ccccc1` (stereo unspecified), the EC50 was above 200 µM and the concentration for half-maximal inhibition (IC50) was above 200 µM.
As for `O=C(Cc1ccccc1)NN1C(=O)C(Cl)C1c1cc(Br)ccc1O` (stereo unspecified), the EC50 is above 12.6 µM and the IC50 was 6.92 µM.
On to `COc1ccc(C(=O)c2ccccc2O)c(O)c1`, for which the EC50 is above 200 µM and the IC50 was above 100 µM.
For `CC(=O)OC1C(OC(C)=O)[C@@]2(C)C(C(O)[C@@H]3C2C(C)C=C2OC(=O)[C@@](C)(O)[C@@]23C)[C@H]2C1[C@]1(C)C(C[C@@H]3O[C@@H]3C1OC(C)=O)C(=O)[C@@H]2O` (stereo partly specified), the outcome was inactive.
Take `CC1(C)N=C(N)N=C(N)N1c1ccc(CCCCc2ccc(S(=O)(=O)F)cc2Cl)c(Cl)c1`: the EC50 is above 107 µM and the IC50 is 1.41 µM.
As to `COc1ccc(C(CC(=O)c2ccc3c(c2)OCO3)c2c(O)c3ccccc3oc2=O)cc1OC` (stereo unspecified), the EC50 is above 200 µM and the IC50 was determined as 75.9 µM.
Take `CCCCCCC1N(Cc2ccc(Cl)cc2)CCCN1Cc1ccc(Cl)cc1`: the EC50 is above 200 µM and the IC50 stood at 12 µM.
In the case of `CCc1cccc(CC)c1N1C(=O)C2=C(SCCCS2)C1=O`, the EC50 was above 44.7 µM and the IC50 is 24 µM.
On to `CCN(CC)C(=O)C[n+]1c2ccccc2n2cc(N)ccc21`, for which the EC50 is above 200 µM and the IC50 is above 200 µM.
Turning to `C=C(c1cc(C(=O)OC)c(OC)c(Br)c1C)c1cc(C(=O)OC)c(OC)c(Br)c1C`, the EC50 was above 200 µM and the IC50 amounted to 77.6 µM.
Take `COC(=O)/C(C#N)=C\NC(=S)C(N)=S`: the EC50 was above 200 µM and the IC50 stood at 11.2 µM.
Take `C=C=C(CCC(=O)c1ccccc1)S(=O)(=O)c1ccccc1`: the EC50 was above 200 µM and the IC50 was determined as 11 µM.
`C=C(C)CN1C(=O)C(C)S/C1=N/N=C1/SCC(=O)N1C` (stereo unspecified): the EC50 was above 42.7 µM and the IC50 is above 42.7 µM.
In the case of `Cc1ccc2c(c1)C(=O)/C(=C1/CCc3ccc(C)cc31)C2`, the EC50 is above 200 µM and the IC50 is above 200 µM.
For the compound `O=C(O)CCCc1ccc2c(c1)CC1(C2)Cc2ccc(CCCC(=O)O)cc2C1`, the EC50 is above 200 µM and the IC50 was determined as 141 µM.
Consider `CC(C)[Si]1(C(C)C)OCC2OC(n3c(C(=O)c4ccccc4)cc(=O)[nH]c3=O)CC2O[Si](C(C)C)(C(C)C)O1` (stereo unspecified), for which the EC50 is above 200 µM and the IC50 was 9.12 µM.
As for `Cc1ccc(-n2c(N)c(C#N)c3c(c2=S)CCC3)cc1`, the EC50 is above 129 µM and the IC50 is above 129 µM.
Turning to `[Zn+2].c1ccc(-c2c3nc(c(-c4ccccc4)c4[n-]c(c(-c5ccccc5)c5nc(c(-c6ccccc6)c6[n-]c2c2ccccc62)-c2ccccc2-5)c2ccccc42)-c2ccccc2-3)cc1`, the EC50 was above 50.1 µM and the IC50 was above 50.1 µM.
Take `CCOc1cc2c(cc1O)C(=O)C[C@@H]1[C@@H]2CC[C@]2(C)[C@@H](O)CC[C@@H]12`: the EC50 was above 2 µM and the IC50 turned out to be 0.0794 µM.
Consider `CCOC(=O)c1c(NC(=O)c2ccccc2)sc2c1CCCC2`, for which the EC50 is above 151 µM and the IC50 was above 151 µM.
For the compound `Cc1cc(N(CCC#N)S(C)(=O)=O)ccc1C=O`, the EC50 is above 933 µM and the IC50 was above 933 µM.
Take `CCOC(=O)C1=C(Nc2cccc3ccccc23)OC/C1=N\NC(=O)c1ccccc1O`: the EC50 was above 60.3 µM and the half-inhibitory concentration (IC50) came to 17.4 µM.
For `NC(=O)c1ccccc1NC(=O)C(=O)Nc1n[nH]c(N)n1` the same measures were above 871 µM and above 871 µM.
Turning to `Cc1nc2cc(F)c(F)cc2[nH]c1=O`, the EC50 was above 200 µM and the IC50 came out at 174 µM.
As to `CCOC(=O)C(C(=O)c1ccccc1C(=O)OC)=P(c1ccccc1)(c1ccccc1)c1ccccc1`, the concentration for a half-maximal effect (EC50) is 22.9 µM and the 50% inhibitory concentration (IC50) turned out to be 52.5 µM.
For `CC(C)c1cccc(C(C)C)c1N=C(N)C#N` the same measures were above 195 µM and 93.3 µM.
Take `NC(=O)N/N=C(\Cc1cc(=O)oc2cc(O)ccc12)C(=O)Nc1ccccc1C(N)=O`: the EC50 was above 32.4 µM and the IC50 is above 32.4 µM.
Regarding `Cn1cc(NC(=O)c2cc(NC(=O)Nc3cc(C(=O)Nc4cc(C(=O)NCCC(=N)N)n(C)c4)n(C)c3)cn2C)cc1C(=O)NCCC(=N)N`, the EC50 was 15.1 µM and the IC50 worked out at 77.6 µM.
With `COc1ccc(/C=N/N2C(=O)c3c(N)c(C#N)c(-c4ccccc4)c(-c4ccccc4)c3C2=O)cc1`, the EC50 is above 100 µM and the IC50 is above 100 µM.
As for `CN(C)C(=S)SSC(=S)N(C)C`, the EC50 was above 200 µM; the result was inactive; the IC50 is 5.01 µM and 1.07 µM.
On to `Cc1ccccc1-n1c(=O)sc2c(=O)n(-c3ccccc3)c(=S)[nH]c21`, for which the EC50 is above 2.82 µM and the IC50 is above 2.82 µM.
As for `Cc1ccc(C(=O)/C=C/c2ccco2)cc1`, the EC50 is above 170 µM and the IC50 came to 53.7 µM.
As for `CN(c1c(Cl)cccc1Cl)S(=O)(=O)c1ccccc1[N+](=O)[O-]`, the EC50 is above 200 µM and the IC50 is 66.1 µM.
Take `Nc1nc(Cl)cc(NC23CC4CC(CC(C4)C2)C3)n1`: the EC50 was above 200 µM and the IC50 was above 200 µM.
As for `CN(C)CCn1c(=O)c2ccc(NCCNCCO)c3c(=O)c4ccccc4n(c1=O)c23`, the EC50 was above 0.2 µM and the IC50 stood at 0.0112 µM.
For `CN(C)CCC(CCN(C)C)=NOC(=O)c1ccccc1` the same measures were above 692 µM and above 692 µM.
`COc1ccc2nc3n(c2c1)C(c1c(F)cccc1Cl)SC3` (stereo unspecified): the EC50 was above 200 µM and the IC50 was above 200 µM.
On to `COc1cc2c(c([N+](=O)[O-])c1)NC(=O)CCS2`, for which the result was inactive.
As to `CC(C)(C)OC(=O)NCC(=O)NCC(=O)NCC(=O)NCC(=O)O` (HELM PEPTIDE1{[CC(C)(C)OC(=O)[*:2]].G.G.G.G}$$$$V2.0), the EC50 was above 724 µM and the 50% inhibitory concentration (IC50) is above 724 µM.
For the compound `COCn1cnc2c(=O)n(-c3ccc(OC)cc3)c(=S)n(-c3ccc(OC)cc3)c21`, the EC50 was above 200 µM and the IC50 was above 200 µM.
Take `O=C(c1ccccc1)N1C(=O)N(c2ccccc2)C(=Nc2ccccc2)C1=Nc1ccccc1`: the EC50 was above 200 µM and the IC50 came to 19.1 µM.
Regarding `O=C(O)c1ccc(C2C3C=CC(C3)C2[N+](=O)[O-])cc1` (stereo unspecified), the EC50 is above 347 µM and the IC50 was above 347 µM.
As for `CC1=C(C(=O)NCc2ccccc2)C(c2ccccc2O)C(C(=O)NCc2ccccc2)=C(C)N1`, the EC50 is above 200 µM and the IC50 stood at 33.9 µM.

For orientation: EC50 means the midpoint of the concentration-response curve. The term IC50 denotes the midpoint of a concentration-inhibition curve.
